Assay results: patent US4767758A, “Pharmaceutical compositions containing thiophene compounds, and new thiophene compounds” (Consiglio Nazionale Delle Ricerche, priority 1984, dated 1988)

Columns and labels:
[1] = tested on: L 929 cells; test: Radiosensitization of cells in hypoxic condition under gamma radiation (Table 1); type: cell-based
Experimental: The biological and pharmacological activity of the compounds under examination was tested on cell cultures and under gamma radiations. […] These aqueous solutions were added to cell cultures containing from 50 to 60 L 929 cells per mm^2; nutrient solution RPM-1-1640 containing 3% calf serum. Contact between the cells and the compound under examination was continued for six hours under nitrogen and under air. Parts of the solutions during the contact with the drug were irradiated in gamma cell with 1000, 2000 and 3000 rad always using a control sample without the drug.

[2] = tested on: L 929 cells; test: Cytotoxicity on cell cultures (Table 2)
Experimental: The biological and pharmacological activity of the compounds under examination was tested on cell cultures and under gamma radiations. Concentrations of 10^-6, 5×10^-6, 10^-5 and 10^-3 M of each compound were used. These aqueous solutions were added to cell cultures containing from 50 to 60 L 929 cells per mm^2; nutrient solution RPM-1-1640 containing 3% calf serum. Contact between the cells and the compound under examination was continued for six hours under nitrogen and under air. Parts of the solutions during the contact with the drug were irradiated in gamma cell with 1000, 2000 and 3000 rad always using a control sample without the drug.

[3] = Reactivity with OH radicals, pulse irradiation (Table 3); details: KCNS 10^-4 M; pulse 50 nsec, dose 18 Gy; λ=500 nm
Excerpt: (§1) For testing the reactivity with oxygen radicals, solutions of the compounds under examination in very pure water were submitted to irradiation by an electron flow in accordance with the following procedure:
The irradiated solution for measurement of reactivity with OH radicals contained KCNS 10^-4 M and increasing concentrations of the compounds under examination. The concentrations were 10^-6 and 6×10^-6for the first five compounds of Table 1, 10^-5 and 10^-4, 10^-3 M for the other eight compounds.
The water used for the tests was neutral and made absolutely pure by deionization and four distillations also in the presence of oxidizing agents (KMnO4).
The irradiation conditions were: pulse 50 nsec, dose 18 Gy.
Absorption was performed at λ=500 nm.

[4] = Reactivity with O2 radicals, pulsed electron beams (Table 3); details: potassium formiate solution saturated with O2; 12 MeV pulsed electron beams
Excerpt: as §1
The O2 species was generated by irradiation of a […] solution of potassium formiate satured with O2 with 12 MeV pulsed electron beams.
The concentration of the O2 radical produced is depending from the irradiation dose (which is proportional to the length of the pulse) and was in any case in excess with respect to the concentration of the reacting substance.

[5] = Acute toxicity test by oral and intravenous route on male mice (Table 4); type: in vivo; details: mouse, in vivo, male mice
Experimental: (§2) The acute toxicity test was carried out by oral and intravenous route on male mice, weighing 19-21 g, which were deprived of meal for 16 hrs before treatment. Oral administration was performed by a gastric probe at doses of 500, 750, 1000 and 2000 mg/kg respectively, of the compounds under examination in aqueous solution of Tween (R). The intravenous administrations was performed in the caudal vein at doses of 100 and 200 mg/kg in 0.9% sodium chloride solution. The administered volumes were 1 ml/20 g by oral route and 0.5 ml/20 g by intravenous route.
(§3) After administration the mice were kept under control for 14 days.

[6] = tested on: male mice; test: as above; type: in vivo; details: 14 days
Experimental: as §2, §3

[7] = culture time 0 hr, 5 × 10^-5 M, control 40
[8] = culture time 6 hr, 5 × 10^-5 M, control 62
[9] = culture time 12 hr, 5 × 10^-5 M, control 80
[10] = culture time 24 hr, 5 × 10^-5 M, control 166
[11] = culture time 0 hr, 0.5 × 10^-5 M, control 40
[12] = culture time 6 hr, 0.5 × 10^-5 M, control 62
[13] = culture time 12 hr, 0.5 × 10^-5 M, control 80
[14] = culture time 24 hr, 0.5 × 10^-5 M, control 166

SMILES | Radiosensitization Index (R.S.I.) ([1]; concentration 1 × 10^-4 M) | Cytotoxicity Index (number of cells) [2, 7] | Cytotoxicity Index (number of cells) [2, 8] | Cytotoxicity Index (number of cells) [2, 9] | Cytotoxicity Index (number of cells) [2, 10] | Reactivity with OH radicals measured as a speed constant (KOH·) [3] | Reactivity with O2 radicals measured as a speed constant (KO2-·) [4] | also measured
O=C(O)CCNC(=O)c1ccc([N+](=O)[O-])s1 [Compound 7] | 1.38 | 56 number of cells | 70 number of cells | 75 number of cells | 164 number of cells | – | – | –
CS(=O)(=O)c1cc([N+](=O)[O-])c(I)s1 [Compound 3] | – | – | – | – | – | – | – | Cytotoxicity Index (number of cells) [2, 11]: 37 number of cells; Cytotoxicity Index (number of cells) [2, 12]: 30 number of cells; Cytotoxicity Index (number of cells) [2, 13]: 35 number of cells; Cytotoxicity Index (number of cells) [2, 14]: 50 number of cells
ON=Cc1ccc(Br)s1 [Compound 13, 5-bromo-2-thiophenaldoxime] | 1.65 | 43 number of cells | 50 number of cells | 70 number of cells | 130 number of cells | 8e+09 M⁻¹ s⁻¹ | 23000 M⁻¹ s⁻¹ | LD50 at 336 h ([5]; oral): 1800 mg/kg; Death (dead/treated animals) ([6]; intravenous, 100 mg/kg): 0/5; Death (dead/treated animals) ([6]; intravenous, 200 mg/kg): 0/5; Death (dead/treated animals) ([6]; oral, 500 mg/kg): 0/5; Death (dead/treated animals) ([6]; oral, 750 mg/kg): 0/5; Death (dead/treated animals) ([6]; oral, 1000 mg/kg): 2/5; Death (dead/treated animals) ([6]; oral, 2000 mg/kg): 3/5
O=C(O)C(C(=O)O)c1csc([N+](=O)[O-])c1 [Compound 12, 5-nitro-3-thiophenemalonic acid] | 1.88 | 50 number of cells | 60 number of cells | 74 number of cells | 136 number of cells | 7.2e+09 M⁻¹ s⁻¹ | 10000 M⁻¹ s⁻¹ | LD50 at 336 h ([5]; oral): 1200 mg/kg; Death (dead/treated animals) ([6]; intravenous, 100 mg/kg): 0/5; Death (dead/treated animals) ([6]; intravenous, 200 mg/kg): 0/5; Death (dead/treated animals) ([6]; oral, 500 mg/kg): 0/5; Death (dead/treated animals) ([6]; oral, 750 mg/kg): 0/5; Death (dead/treated animals) ([6]; oral, 1000 mg/kg): 2/5; Death (dead/treated animals) ([6]; oral, 2000 mg/kg): 5/5
O=C(c1ccc([N+](=O)[O-])s1)N1CCOCC1 [Compound 9, 5-nitro-2-carboxythiophene-morpholinamide] | 1.56 | 64 number of cells | 60 number of cells | 80 number of cells | 138 number of cells | 3.1e+10 M⁻¹ s⁻¹ | 230000 M⁻¹ s⁻¹ | LD50 at 336 h ([5]; oral): 2000 mg/kg; Death (dead/treated animals) ([6]; intravenous, 100 mg/kg): 0/5; Death (dead/treated animals) ([6]; intravenous, 200 mg/kg): 0/5; Death (dead/treated animals) ([6]; oral, 500 mg/kg): 0/5; Death (dead/treated animals) ([6]; oral, 750 mg/kg): 0/5; Death (dead/treated animals) ([6]; oral, 1000 mg/kg): 1/5; Death (dead/treated animals) ([6]; oral, 2000 mg/kg): 3/5
NC(=O)c1ccc([N+](=O)[O-])s1 [Compound 5] | – | 40 number of cells | 32 number of cells | 50 number of cells | 80 number of cells | 2.3e+10 M⁻¹ s⁻¹ | 30000 M⁻¹ s⁻¹ | Radiosensitization Index (R.S.I.) ([1]; concentration 5 × 10^-5 M): 1.40
O=[N+]([O-])c1cc([N+](=O)[O-])c(I)s1 [Compound 1] | – | – | – | – | – | 2.1e+10 M⁻¹ s⁻¹ | 3.5e+06 M⁻¹ s⁻¹ | Cytotoxicity Index (number of cells) [2, 11]: 36 number of cells; Cytotoxicity Index (number of cells) [2, 12]: 35 number of cells; Cytotoxicity Index (number of cells) [2, 13]: 42 number of cells; Cytotoxicity Index (number of cells) [2, 14]: 71 number of cells; LD50 at 336 h ([5]; intravenous): 200 mg/kg; LD50 at 336 h ([5]; oral): 760 mg/kg; Death (dead/treated animals) ([6]; intravenous, 100 mg/kg): 0/5; Death (dead/treated animals) ([6]; intravenous, 200 mg/kg): 0/5; Death (dead/treated animals) ([6]; oral, 500 mg/kg): 0/5; Death (dead/treated animals) ([6]; oral, 750 mg/kg): 2/5; Death (dead/treated animals) ([6]; oral, 1000 mg/kg): 5/5
CC(=O)Nc1ccc([N+](=O)[O-])s1 [Compound 11, 5-nitro-2-(N-acetyl)-thienylamine] | 1.65 | 44 number of cells | 52 number of cells | 60 number of cells | 90 number of cells | – | – | –
O=[N+]([O-])c1ccc(Oc2sccc2[N+](=O)[O-])cc1 [Compound 4] | – | – | – | – | – | 1.3e+10 M⁻¹ s⁻¹ | 20000 M⁻¹ s⁻¹ | Cytotoxicity Index (number of cells) [2, 11]: 56 number of cells; Cytotoxicity Index (number of cells) [2, 12]: 34 number of cells; Cytotoxicity Index (number of cells) [2, 13]: 48 number of cells; Cytotoxicity Index (number of cells) [2, 14]: 70 number of cells
O=C(O)CCCNC(=O)c1ccc([N+](=O)[O-])s1 [Compound 8] | 1.30 | 47 number of cells | 50 number of cells | 80 number of cells | 152 number of cells | – | – | –
COCC(O)Cn1ccnc1[N+](=O)[O-] (stereo not shown) [Misonidazole, reference compound] | – | – | – | – | – | – | – | Radiosensitization Index (R.S.I.) ([1]; concentration 1 × 10^-3 M): 1.65
CN1CCN(C(=O)c2ccc([N+](=O)[O-])s2)CC1 [Compound 10, 5-nitro-2-carboxythiophene-N-methyl-piperazinamide] | 1.58 | 50 number of cells | 52 number of cells | 60 number of cells | 86 number of cells | 1e+10 M⁻¹ s⁻¹ | 33000 M⁻¹ s⁻¹ | –
O=C(O)c1ccc([N+](=O)[O-])s1 [Compound 6] | 1.82 | 50 number of cells | 60 number of cells | 70 number of cells | 110 number of cells | 7.5e+09 M⁻¹ s⁻¹ | 100000 M⁻¹ s⁻¹ | –
O=[N+]([O-])c1csc([N+](=O)[O-])c1 [Compound 2] | – | – | – | – | – | – | – | Cytotoxicity Index (number of cells) [2, 11]: 46 number of cells; Cytotoxicity Index (number of cells) [2, 12]: 40 number of cells; Cytotoxicity Index (number of cells) [2, 13]: 68 number of cells; Cytotoxicity Index (number of cells) [2, 14]: 80 number of cells
